Reference: patent publication EP3866826B1, “ANTIMICROBIAL PEPTIDES AND METHODS OF USING THE SAME” (priority 2018, dated 2020)
Where no end group is shown, it is not given here.

Experiments:
Candida 17-88 biofilm = test: Inhibition of preformed biofilm, metabolic evaluation using XTT (FIG. 5); assay type: cell-based, Candida albicans; conditions: added to preformed Candida 17-88 biofilm for 24 hours
Protocol: Fluconazole or RP557 were added to preformed Candida 17-88 biofilm for 24 hours and biofilm inhibition evaluated via metabolic evaluation using XTT, 2,3-bis (2-methoxy-4-nitro-5-sulfophenyl) [phenyl-amino)carbonyl]-2H. Data represent the mean±SD of triplicate measurements and statistical significance, compared to vehicle control, determined by one-way ANOVA followed by Dunnett's test (*p < 0.05, **p < 0.01, and ***p < 0.001).

S. aureus ATCC 6538 = test: Polymicrobial infected full-thickness thermal porcine burn model, bacterial counts (FIG. 6B); assay type: in vivo; conditions: pig, single topical application, sampled after 24 hours
Protocol: (§1) From the in vitro screening assays three AMPs were selected for further evaluation in a qualified porcine burn wound model infected with P. aeruginosa and S. aureus. Full thickness wounds were created with heated brass rod and 2cm trephine: approximately 10 minutes after homeostasis, wounds were infected with a 2:2:1 mixture of S. aureus, P. aeruginosa and Fuscobacterium ssp. Treatment of infected wounds began 24 hours post infection to allow for biofilm formation.
(§2) Full thickness wounds were created with a heated brass rod and a trephine on the back of anesthetized pigs followed by infection with 2:2:1 mixture of S. aureus ATCC 6538 (FIG. 6B) and P. aeruginosa (porcine isolate) (FIG. 6A) and fusobacterium ssp. After 3 hours, 0, 0.1, 0.2, 1 or 2% RP557 were applied. After 24 hours, wounds were sampled by punch biopsy and bacterial counts, expressed as log (Colony Forming Units, CFUs/g) evaluated. Data is expressed as mean±SE of 8 replicates. Statistical significance, compared to vehicle, determined by one-way ANOVA followed by Dunnett's test (**p < 0.01, ****p < 0.0001).

[1] = tested on: P. aeruginosa (porcine isolate); test: Polymicrobial infected full-thickness thermal porcine burn model, bacterial counts (FIG. 6A); assay type: in vivo; conditions: pig, single dose, 2% RP557 (p<0.0001), sampled after 24 hours
Protocol: as §1, §2

[2] = tested on: S. aureus, P. aeruginosa and Fuscobacterium ssp.; test: Pharmacodynamic response in biofilm associated wounds, CFU counts of punch biopsies (FIG. 7); assay type: in vivo; conditions: 2% RP557 applied 24 hours post inoculation; biopsies at 30 min, 180 min and 24 hours post treatment
Protocol: as §1
FIG. 7A-7B Pharmacodynamic Response to RP557. Twenty four hours post bacterial inoculation biofilm associated wounds were treated with 2% RP557. Punch biopsies were taken at 30 min, 180 min and 24 hours post treatment, homogenized, plated and CFUs counted. Statistical significance was calculated using the Holm-Sidak method. *p<0.05, ***p<0.001, ****p<0.0001, dAMP vs Control.

C. albicans (ATCC 44858) = test: Vaginal infection rodent model of vulvovaginal candidiasis, fungal counts (FIG. 8); assay type: in vivo; conditions: rats, 20 mg/mL IVG at 0.1 mL/rat twice daily for 3 days from 48 hr after infection, CFUs on Day 5 (p < 0.0001)
Protocol: FIG. 8A to 8B. RP557 topical treatment reduces rodent vaginal candidiasis. Effects of RP557, miconazole and oral fluconazole in the C. albicans (ATCC 44858) vaginal infection rodent model. On Day 0, rats were inoculated intravaginally (IVG) with C. albicans at 1.46 x 10^7 CFU/rat. RP557 and miconazole at 20 mg/mL were administered IVG at 0.1 mL/rat twice daily at 8 hr intervals starting from 48 hr after infection for 3 days. CFUs were evaluated on Day 5 with limit of detection (LOD) 0.7 CFU/rat. Significant difference, compared to vehicle, determined by one-way ANOVA followed by Dunnett's test (*p < 0.05, ****p < 0.0001). A separate group receiving oral fluconazole; *p < 0.05 versus 0.1 and 10 mg/kg fluconazole.

[3] = Physiochemical properties of RP557 (hydrophilicity, solubility, pH stability); assay type: physicochemical; conditions: extremes of pH (<4)
Protocol: (§3) Exemplary AMP RP557 was prepared in one gram lots at 98% purity or better. […] Furthermore, advances in solid and solution phase peptide chemistry has enabled Good Manufacturing Practice (GMP) material to be produced rapidly, economically in high yield and purity.

S. aureus 29213 = test: Resistance development by serial passage at sub-inhibitory concentrations, 30 passages (FIG. 4); assay type: cell-based
Protocol: (§4) FIG. 4A to 4B. […] Sub-inhibitory concentrations of RP557, gentamicin and clindamycin were incubated with P. aeruginosa 27853 and S. aureus 29213 for 24 hours. Bacteria showing growth in the highest concentration were re-passaged in fresh dilutions containing sub-minimum inhibitory concentration (MIC) levels of each component for 30 consecutive passages; means are shown.

P. aeruginosa 27853 = test: as above; assay type: cell-based
Protocol: as §4

L929 fibroblast cells = test: Cytotoxicity to mammalian cells, cell viability (FIG. 3C); assay type: cell-based
Protocol: The rapid destruction of pathogenic cells by potent broad-spectrum topical anti-infectives infer a theoretical reduced likelihood of developing bacterial resistance. […] Cell viability was performed using bioluminescent strains of P. aeruginosa 19660 (FIG. 3A), S. aureus 49525 (FIG. 3B) & L929 fibroblast cells (FIG. 3C) and imaged with the IVIS Lumina system. Data represents the mean of 3 measurements.

[4] = Stability in serum, monitored via LC-MS/MS; assay type: in vitro ADME; conditions: human serum for 72 hrs at 37°C monitored via LC-MS/MS
Protocol: as §3

[5] = tested on: gram-negative bacteria; A. baumannii and P. aeruginosa; gram-positive bacteria, S. aureus and MRSA and fungal strains; C. albicans, C. parapsilosis, C. krusei …; test: Antimicrobial activity against multiple clinical isolates of bacteria and fungal strains; assay type: cell-based
Protocol: Thirty-four AMPs were synthesized and evaluated in three iterative rounds. Each AMP was evaluated for antimicrobial potency against 11 strains of bacteria, 7 strains of fungi and their cytotoxicity determined using L929 fibroblasts and human keratinocytes. The AMPs were evaluated for biofilm eradication and ability to induce antimicrobial resistance.

Sequence: RFCWKVCYKGICFKKCK (disulfide (positions not given here)) [RP557, 17 amino acids, hairpin structure formed by two disulfide bonds]
- biofilm inhibition (Candida 17-88 biofilm): potent inhibitor
- S. aureus CFU counts (S. aureus ATCC 6538; 0.2% RP557 (p < 0.01)): 2.11±1.75 log CFU/g tissue
- S. aureus CFU counts (S. aureus ATCC 6538; 1% RP557 (p < 0.0001)): 1.46±2.05 log CFU/g tissue
- number of viable P. aeruginosa bacteria [1]: 1.96±1.64 log CFU/g tissue
- pharmacodynamic response, CFUs in wounds [2]: Kills Infection Throughout a 24 Hour Period
- fungal counts relative to the vehicle control group (C. albicans (ATCC 44858)): significant reductions
- stability at extremes of pH [3]: stable
- susceptibility of the resistant strain at the end of 30 serial passages (cross resistance) (S. aureus 29213; clindamycin-resistant S. aureus): readily susceptible
- development of resistance (S. aureus 29213; sub-inhibitory concentrations, 30 consecutive passages, S. aureus 29213): did not develop resistance
- susceptibility of the resistant strain at the end of 30 serial passages (cross resistance) (P. aeruginosa 27853; gentamicin-resistant P. aeruginosa): readily susceptible
- development of resistance (P. aeruginosa 27853; sub-inhibitory concentrations, 30 consecutive passages, P. aeruginosa 27853): did not develop resistance
- cytotoxicity to mammalian cells (L929 fibroblast cells): not cytotoxic
- stability in serum [4]: stable in serum
- antimicrobial activity [5]: broad-spectrum antimicrobial activity
